Test system: patients with PoPH
Assay: PORTICO safety: treatment-emergent AEs, SAEs, AESIs, deaths, discontinuations
Type: in vivo
Description: For the evaluation of treatment-emergent safety endpoints in the DB phase, the observation period for each individual subject started at the time of the first administration of macitentan or placebo and ended with the start of OL treatment or 30 days after DB treatment discontinuation (whichever occurred first). The safety variables listed below apply to the DB treatment-emergent period and the macitentan treatment-emergent period. The DB treatment-emergent period was defined as the period from the DB treatment start date up to the EOT-DB+30 days or to the EOT-DB for patients entering OL. The macitentan treatment-emergent period was defined as the period from the first intake of macitentan up to end of macitentan treatment (EOMT)+30 days. EOMT was defined as EOT-DB (for patient who received macitentan only in the DB period) or EOT-OL when applicable. For patients entering OLE, the EOMT is EOT-OL. • Treatment-emergent AEs • Treatment-emergent deaths • Treatment-emergent serious adverse events (SAEs) • AEs leading to premature discontinuation of study treatment • Occurrence of post-baseline LFT (ALT and/or AST) abnormalities, classified as: • ≥3×ULN; • ≥5×ULN; • ≥8×ULN; • ≥3×ULN and <5×ULN; • […] and <8×ULN. • Occurrence of post-baseline ALT and/or AST abnormality 3×ULN and concomitant (i.e., at the same time) total bilirubin ≥2×ULN • Occurrence of post-baseline ALT and/or AST abnormality ≥3×ULN and concomitant (i.e., at the same time) total bilirubin ≥2×ULN and increased as compared to baseline • Occurrence of hemoglobin abnormalities, classified as: • ≤80 g/L, • >80 and ≤100 g/L, • decrease from baseline ≥20 g/L and <50 g/L, • decrease from baseline ≥50 g/L, • <100 g/L and concurrent (i.e., at the same time) decrease from baseline ≥20 g/L. • Other treatment-emergent marked laboratory abnormalities • Change from baseline/macitentan baseline to EOT-DB/EOMT in vital signs • Change from baseline/macitentan baseline to EOT-DB/EOMT in laboratory variables • Change from baseline/macitentan baseline to EOT-DB/EOMT in Child-Pugh classification • Change from baseline/macitentan baseline to EOT-DB/EOMT in MELD score
(i) Adverse events: All AEs occurring after study start (i.e., signing of informed consent) and up to 30 days after study treatment discontinuation were required to be recorded. AEs still ongoing more than 30 days after study treatment discontinuation were required to be followed up until they were no longer considered clinically relevant.
(ii) Serious adverse events, including associated with study design or protocol-mandated procedures: During the screening period, all SAEs occurring after study start (i.e., signing of informed consent) were required to be recorded (whether considered associated or not associated to study design or study-mandated procedures). All SAEs, regardless of investigator-attributed causal relationship, occurring during the treatment period up to the end of the 30-day follow up period, were required to be reported. SAEs still ongoing at the EOS visit were required to be followed up until resolution or stabilization, or until the event outcome was provided, e.g., death. New SAEs occurring after the 30-day follow-up period were required to be reported within 24 hours.
In addition, the following adverse events of special interest (AESIs) were analyzed: • “Edema and fluid retention”
Any treatment-emergent AE with PT listed in the Standardised MedDRA Query (SMQ) “Haemodynamic oedema, effusions and fluid overload (SMQ)” or with PT equal to “Pulmonary congestion” defined in the latest available MedDRA version, with the exception of PTs containing “site”. • “Anemia”

[1] = DB phase, Safety set, 10 mg, N = 43
[2] = DB phase, macitentan group (6 patients)
[3] = DB phase, macitentan group, 7 patients
[4] = OL phase, Macitentan treated set, N = 84
[5] = macitentan DB + OL phase, Macitentan treated set, N = 84

Structure (SMILES): CCCNS(=O)(=O)Nc1ncnc(OCCOc2ncc(Br)cn2)c1-c1ccc(Br)cc1 [macitentan, N-[5-(4-Bromophenyl)-6-[2-[(5-bromo-2-pyrimidinyl)oxy]ethoxy]-4-pyrimidinyl]-N′-propylsulfamide]
- AEs that occurred more frequently than in the placebo group (DB phase): peripheral edema/peripheral swelling, bronchitis and decreased hemoglobin/anemia
- Deaths (DB phase): no deaths
- AE leading to premature discontinuation of study treatment, Alveolitis [1]: 1 (2.3) n (%)
- AE leading to premature discontinuation of study treatment, Anaemia [1]: 1 (2.3) n (%)
- AE leading to premature discontinuation of study treatment, Hypersensitivity [1]: 1 (2.3) n (%)
- AE leading to premature discontinuation of study treatment, Pulmonary arterial hypertension [1]: 1 (2.3) n (%)
- AE of special interest Anemia, Pancytopenia [1]: 0 n (%)
- AE of special interest Hepatic disorders, Blood bilirubin increased [1]: 0 n (%)
- AE of special interest Hepatic disorders, Gamma-glutamyltransferase increased [1]: 0 n (%)
- Subjects with at least one AE [1]: 36 (83.7) n (%)
- Subjects with at least one AE leading to study drug discontinuation [1]: 4 (9.3) n (%)
- Subjects with at least one Drug-Related AE [1]: 19 (44.2) n (%)
- Subjects with at least one Drug-Related serious AE [1]: 5 (11.6) n (%)
- Subjects with at least one Fatal serious AE [1]: 0 n (%)
- Subjects with at least one Serious AE [1]: 9 (20.9) n (%)
- Subjects with at least one Severe AE [1]: 7 (16.3) n (%)
- Treatment-emergent AE, Abdominal pain [1]: 2 (4.7) n (%)
- Treatment-emergent AE, Acute kidney injury [1]: 2 (4.7) n (%)
- Treatment-emergent AE, Back pain [1]: 2 (4.7) n (%)
- Treatment-emergent AE, Bronchitis [1]: 4 (9.3) n (%)
- Treatment-emergent AE, Cough [1]: 0 n (%)
- Treatment-emergent AE, Diarrhoea [1]: 1 (2.3) n (%)
- Treatment-emergent AE, Dizziness [1]: 2 (4.7) n (%)
- Treatment-emergent AE, Dry mouth [1]: 1 (2.3) n (%)
- Treatment-emergent AE, Dyspnoea [1]: 1 (2.3) n (%)
- Treatment-emergent AE, Fall [1]: 2 (4.7) n (%)
- Treatment-emergent AE, Foot fracture [1]: 1 (2.3) n (%)
- Treatment-emergent AE, Headache [1]: 7 (16.3) n (%)
- Treatment-emergent AE, Hypokalaemia [1]: 2 (4.7) n (%)
- Treatment-emergent AE, Hypotension [1]: 2 (4.7) n (%)
- Treatment-emergent AE, Muscle spasms [1]: 0 n (%)
- Treatment-emergent AE, Nausea [1]: 1 (2.3) n (%)
- Treatment-emergent AE, Pain in extremity [1]: 2 (4.7) n (%)
- Treatment-emergent AE, Presyncope [1]: 2 (4.7) n (%)
- Treatment-emergent AE, Rhinitis [1]: 2 (4.7) n (%)
- Treatment-emergent AE, Right ventricular failure [1]: 3 (7.0) n (%)
- Treatment-emergent AE, Tachycardia [1]: 2 (4.7) n (%)
- Treatment-emergent AE, Urinary tract infection [1]: 2 (4.7) n (%)
- Treatment-emergent AE, Viral upper respiratory tract infection [1]: 2 (4.7) n (%)
- Treatment-emergent SAE, Acute kidney injury [1]: 1 (2.3) n (%)
- Treatment-emergent SAE, Alveolitis [1]: 1 (2.3) n (%)
- Treatment-emergent SAE, Aneurysm repair [1]: 0 n (%)
- Treatment-emergent SAE, Ascites [1]: 1 (2.3) n (%)
- Treatment-emergent SAE, Asthma [1]: 1 (2.3) n (%)
- Treatment-emergent SAE, Atrial fibrillation [1]: 1 (2.3) n (%)
- Treatment-emergent SAE, Fluid overload [1]: 1 (2.3) n (%)
- Treatment-emergent SAE, Haemoptysis [1]: 1 (2.3) n (%)
- Treatment-emergent SAE, Hepatic encephalopathy [1]: 1 (2.3) n (%)
- Treatment-emergent SAE, Hepatocellular carcinoma [1]: 1 (2.3) n (%)
- Treatment-emergent SAE, Hypersensitivity [1]: 1 (2.3) n (%)
- Treatment-emergent SAE, Ileus [1]: 1 (2.3) n (%)
- Treatment-emergent SAE, Left ventricular failure [1]: 1 (2.3) n (%)
- Treatment-emergent SAE, Localised infection [1]: 0 n (%)
- Treatment-emergent SAE, Localised oedema [1]: 1 (2.3) n (%)
- Treatment-emergent SAE, Lung infection [1]: 1 (2.3) n (%)
- Treatment-emergent SAE, Oedema peripheral [1]: 1 (2.3) n (%)
- Treatment-emergent SAE, Presyncope [1]: 1 (2.3) n (%)
- Treatment-emergent SAE, Pulmonary arterial hypertension [1]: 1 (2.3) n (%)
- Treatment-emergent SAE, Pulmonary toxicity [1]: 1 (2.3) n (%)
- Treatment-emergent SAE, Right ventricular failure [1]: 2 (4.7) n (%)
- Treatment-emergent SAE, Syncope [1]: 1 (2.3) n (%)
- Treatment-emergent SAE, Troponin I increased [1]: 1 (2.3) n (%)
- Treatment-emergent SAE, Urosepsis [1]: 1 (2.3) n (%)
- Treatment-emergent SAE, Vascular procedure complication [1]: 0 n (%)
- Anemia AE cases leading to discontinuation of study treatment (DB phase, macitentan group): 1 case
- Edema/fluid retention SAEs (in one patient: peripheral edema, localized edema, fluid overload) (DB phase, macitentan group): 3 SAEs
- Patients who discontinued treatment due to AEs (DB phase, macitentan group): 4 patients
- Patients who had SAEs (DB phase, macitentan group): 20.9%
- Patients with hepatic disorder SAEs (DB phase, macitentan group): 3 patients
- Patients with anemia AEs [2]: 14.0%
- Patients with hepatic disorder AEs [2]: 14.0%
- Patients with edema and fluid retention AEs (DB phase, macitentan group (13 patients)): 30.2%
- Peripheral edema considered related to study treatment (DB phase, macitentan group, 4 patients): 9.3%
- Headache considered related to study treatment [3]: 16.3%
- Patients with severe AEs [3]: 16.3%
- Deaths considered related to macitentan treatment by the investigator (OL and OLE): None of the deaths were considered by the investigator to be related
- Patients who died (OL phase): 4 patients
- Reason for death, Hepatocellular Carcinoma [4]: 1 (1.2) n (%)
- Reason for death, Pneumonia [4]: 1 (1.2) n (%)
- Reason for death, Pulmonary Arterial Hypertension [4]: 1 (1.2) n (%)
- Reason for death, Subdural Haematoma [4]: 1 (1.2) n (%)
- Total deaths [4]: 4 (4.8) n (%)
- Macitentan-treated patients who died (across OL phase (and after end of its follow-up) and ongoing OLE phase): 7 patients
- AE leading to premature discontinuation of study treatment, Alveolitis [5]: 1 (1.2) n(%)
- AE leading to premature discontinuation of study treatment, Anaemia [5]: 2 (2.4) n(%)
- AE leading to premature discontinuation of study treatment, Ascites [5]: 1 (1.2) n(%)
- AE leading to premature discontinuation of study treatment, Diarrhoea [5]: 1 (1.2) n(%)
- AE leading to premature discontinuation of study treatment, Hypersensitivity [5]: 1 (1.2) n(%)
- AE leading to premature discontinuation of study treatment, Liver function test increased [5]: 1 (1.2) n(%)
- AE leading to premature discontinuation of study treatment, Oedema peripheral [5]: 2 (2.4) n(%)
- AE leading to premature discontinuation of study treatment, Pneumonia [5]: 1 (1.2) n(%)
- AE leading to premature discontinuation of study treatment, Pulmonary arterial hypertension [5]: 1 (1.2) n(%)
- AEs leading to premature discontinuation of study treatment, Subjects with at least one AE [5]: 10 (11.9) n(%)
- AEs of special interest Anemia, Anaemia postoperative [5]: 1 (1.2) n (%)
- AEs of special interest Anemia, Haematocrit decreased [5]: 1 (1.2) n (%)
- AEs of special interest Anemia, Subjects with atleast one AE [5]: 22 (26.2) n (%)
- AEs of special interest Edema and fluid retention, Fluid overload [5]: 1 (1.2) n (%)
- AEs of special interest Edema and fluid retention, Fluid retention [5]: 1 (1.2) n (%)
- AEs of special interest Edema and fluid retention, Generalised oedema [5]: 1 (1.2) n (%)
- AEs of special interest Edema and fluid retention, Joint swelling [5]: 1 (1.2) n (%)
- AEs of special interest Edema and fluid retention, Localised oedema [5]: 1 (1.2) n (%)
- AEs of special interest Edema and fluid retention, Peripheral swelling [5]: 2 (2.4) n (%)
- AEs of special interest Edema and fluid retention, Subjects with atleast one AE [5]: 26 (31.0) n (%)
- AEs of special interest Edema and fluid retention, Swelling [5]: 1 (1.2) n (%)
- AEs of special interest Hepatic disorders, Ammonia increased [5]: 2 (2.4) n (%)

Source: patent US20220257595A1, “MACITENTAN FOR USE IN TREATING PORTOPULMONARY HYPERTENSION” (ACTELION PHARMACEUTICALS LTD, priority 2019, published 2022)
